biological target: T1, Recombinant full length human OGA enzyme (Homo sapiens, UniProt O60502); test: OGA Enzyme Inhibition Biochemical Assay; settings: 1 nM OGA, 100 μM 4-MUGlcNAc (Km), pH 6.4, 90 minutes at room temperature, 10-point dose-response from 20 μM
T1 construct: Recombinant full length human OGA enzyme was purchased from Origene; purchased Origene
T1 sequence (O60502 1-916): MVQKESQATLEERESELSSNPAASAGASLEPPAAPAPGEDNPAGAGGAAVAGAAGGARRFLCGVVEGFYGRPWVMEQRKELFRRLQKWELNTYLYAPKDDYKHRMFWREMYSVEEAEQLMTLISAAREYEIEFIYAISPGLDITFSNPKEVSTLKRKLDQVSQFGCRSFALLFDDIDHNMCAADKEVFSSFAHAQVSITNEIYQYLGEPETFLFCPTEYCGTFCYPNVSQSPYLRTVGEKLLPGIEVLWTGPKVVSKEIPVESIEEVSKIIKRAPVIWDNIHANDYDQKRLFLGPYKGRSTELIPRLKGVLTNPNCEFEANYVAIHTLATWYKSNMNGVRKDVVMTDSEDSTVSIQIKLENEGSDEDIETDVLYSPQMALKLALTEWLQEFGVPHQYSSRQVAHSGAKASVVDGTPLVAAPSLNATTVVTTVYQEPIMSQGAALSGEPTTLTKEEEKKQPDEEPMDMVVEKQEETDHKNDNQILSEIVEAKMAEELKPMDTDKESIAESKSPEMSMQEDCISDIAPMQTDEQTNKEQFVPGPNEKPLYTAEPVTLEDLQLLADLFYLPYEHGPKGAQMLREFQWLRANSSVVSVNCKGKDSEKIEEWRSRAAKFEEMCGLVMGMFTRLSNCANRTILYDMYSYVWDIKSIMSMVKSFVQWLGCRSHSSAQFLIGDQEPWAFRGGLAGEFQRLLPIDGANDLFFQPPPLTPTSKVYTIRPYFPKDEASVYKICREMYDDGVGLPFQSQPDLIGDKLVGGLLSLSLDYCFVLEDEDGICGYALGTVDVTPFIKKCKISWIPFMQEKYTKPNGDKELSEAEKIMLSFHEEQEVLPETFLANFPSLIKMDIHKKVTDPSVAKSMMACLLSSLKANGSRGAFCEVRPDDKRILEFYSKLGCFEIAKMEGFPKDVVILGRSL
How it was run: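 Full-length human OGA at 1 nM with 100 μM 4-MUGlcNAc (Km) in McIlvaine buffer pH 6.4 plus 0.01% BSA, 90 min at room temperature, then glycine pH 10 quench. Fluorescence read at Ex 355/Em 460 nm. 10-point, 4-fold dose-response from 20 μM, 4-parameter variable-slope fit.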

Row | SMILES | IC50 [nM]
1 | COc1ccc(CC2CCCN(Cc3cnc(NC(C)=O)s3)C2)cc1 (stereo not drawn) [Example 1-4, N-(5-((3-(4-methoxybenzyl)piperidin-1-yl)methyl)thiazol-2-yl)acetamide] | 8
2 | CC(=O)Nc1ncc(CN2C[C@H](Cc3ncc(F)cn3)C[C@@H]2C)s1 (single isomer, unassigned) [Example 2-18] | 358
3 | CC(=O)Nc1nc(F)c(CN2CCCC(Cc3noc(C)n3)C2)s1 (stereo not drawn) [Example 4-18, N-(4-fluoro-5-((3-((5-methyl-1,2,4-oxadiazol-3-yl)methyl)piperidin-1-yl)methyl)thiazol-2-yl)acetamide] | 6.6
4 | CC(=O)Nc1ncc(CN2CC(Cc3ncc(F)cn3)CC(F)(F)C2)s1 (stereo not drawn) [Example 2-13, N-(5-((3,3-difluoro-5-((5-fluoropyrimidin-2-yl)methyl)piperidin-1-yl)methyl)thiazol-2-yl)acetamide] | 450
5 | CC(=O)Nc1ncc(CN2CCC[C@H](Cc3ncc(C(F)(F)F)cn3)C2)s1 [Example 2-9, (R)-N-(5-((3-((5-(trifluoromethyl)pyrimidin-2-yl)methyl)piperidin-1-yl)methyl)thiazol-2-yl)acetamide] | 30
6 | CC(=O)Nc1ncc(CN2CCCC(Cc3ccc(F)cc3)C2)s1 (stereo not drawn) [Example 1-1, N-(5-((3-(4-fluorobenzyl)piperidin-1-yl)methyl)thiazol-2-yl)acetamide] | 60
7 | CCc1cc2ncnc(CC3CCCN(Cc4cnc(NC(C)=O)s4)C3)c2s1 (stereo not drawn) [Example 1-42, N-(5-((3-((6-ethylthieno[3,2-d]pyrimidin-4-yl)methyl)piperidin-1-yl)methyl)thiazol-2-yl)acetamide] | 2
8 | CC(=O)Nc1ncc(CN2C[C@@H](Cc3ncc(F)cn3)CC[C@H]2C)s1 (single isomer, unassigned) [Example 2-24] | 1100
9 | CC(=O)Nc1nc(F)c(CN2CC[C@H](Cc3cc(C)ncc3F)C2)s1 [Example 3-28, (S)—N-(4-fluoro-5-((3-((5-fluoro-2-methylpyridin-4-yl)methyl)pyrrolidin-1-yl)methyl)thiazol-2-yl)acetamide] | 8.3
10 | CC(=O)Nc1ncc(CN2CCCC(Cc3cncc(C(F)(F)F)c3)C2)s1 (stereo not drawn) [Example 1-30, N-(5-((3-((5-(trifluoromethyl)pyridin-3-yl)methyl)piperidin-1-yl)methyl)thiazol-2-yl)acetamide] | 30
11 | COc1nc(C[C@H]2CCN(Cc3cnc(NC(C)=O)s3)C2)nc(C)c1F [Example 3-9, (R)-N-(5-((3-((5-fluoro-4-methoxy-6-methylpyrimidin-2-yl)methyl)pyrrolidin-1-yl)methyl)thiazol-2-yl)acetamide] | < 1
12 | CC(=O)Nc1nc(F)c(CN2CC[C@H](Cc3cc(C)nc(C)c3)C2)s1 [Example 3-24, (S)—N-(5-((3-((2,6-dimethylpyridin-4-yl)methyl)pyrrolidin-1-yl)methyl)-4-fluorothiazol-2-yl)acetamide] | < 1
13 | CC(=O)Nc1ncc(CN2CCC[C@@H](Cc3ncc(F)cn3)C2)s1 [Example 2-33, N-[5-[[(3S)-3-[(5-fluoropyrimidin-2-yl)methyl]-1-piperidyl]methyl]thiazol-2-yl]acetamide] | 122
14 | CC(=O)Nc1nc(F)c(CN2C[C@H](Cc3noc(C)n3)C[C@@H]2C)s1 (single isomer, unassigned) [Example 4-12 Peak 2] | < 1
15 | CC(=O)Nc1ncc(CN2C[C@@H](Cc3ncc(F)cn3)C[C@H]2C)s1 (single isomer, unassigned) [Example 2-19] | 1
16 | CC(=O)Nc1ncc(CN2CC(Cc3ncc(F)cn3)CC[C@@H]2C(F)(F)F)s1 (stereo partly drawn) [Example 2-50] | 270
17 | CC(=O)Nc1ncc(CN2C[C@H](Cc3ncc(F)cn3)CC[C@@H]2C)s1 (single isomer, unassigned) [Example 2-25] | 5
18 | CC(=O)Nc1nc(F)c(CN2CCC[C@H](Cc3cc(C)nc(C)c3)C2)s1 [Example 3-25, (R)-N-(5-((3-((2,6-dimethylpyridin-4-yl)methyl)piperidin-1-yl)methyl)-4-fluorothiazol-2-yl)acetamide] | < 1

Row | SMILES | IC50 [nM]
19 | CCC(=O)Nc1nc(F)c(CN2CC[C@H](Cc3ncc(F)cn3)C2)s1 [Example 3-27, (R)-N-(4-fluoro-5-((3-((5-fluoropyrimidin-2-yl)methyl)pyrrolidin-1-yl)methyl)thiazol-2-yl)propionamide] | 34
20 | CC(=O)Nc1ncc(CN2CC[C@H](C)[C@H](Cc3ncc(F)cn3)C2)s1 (single isomer, unassigned) [Example 2-39] | 1
21 | COc1nc(C[C@H]2CCCN(Cc3cnc(NC(C)=O)s3)C2)ncc1F [Example 2-6, (R)-N-(5-((3-((5-fluoro-4-methoxypyrimidin-2-yl)methyl)piperidin-1-yl)methyl)thiazol-2-yl)acetamide] | 8
22 | CC(=O)Nc1ncc(CN2C[C@@H](Cc3noc(C)n3)C[C@@H]2C)s1 [Example 4-13, N-(5-(((2S,4R)-2-methyl-4-((5-methyl-1,2,4-oxadiazol-3-yl)methyl)pyrrolidin-1-yl)methyl)thiazol-2-yl)acetamide] | 1.9
23 | CC(=O)Nc1ncc(CN2CC[C@H](Cc3ncc(C)cn3)C2)s1 [Example 3-13, (R)-N-(5-((3-((5-methylpyrimidin-2-yl)methyl)pyrrolidin-1-yl)methyl)thiazol-2-yl)acetamide] | 14
24 | CC(=O)Nc1ncc(CN2CCCC(Cc3ncc(F)cn3)C2C)s1 (stereo not drawn) [Example 2-41, N-(5-((3-((5-fluoropyrimidin-2-yl)methyl)-2-methylpiperidin-1-yl)methyl)thiazol-2-yl)acetamide] | 510
25 | COc1ccc(CC2CCN(Cc3cnc(NC(C)=O)s3)C2)cc1 (stereo not drawn) [Example 1-15, N-(5-((3-(4-methoxybenzyl)pyrrolidin-1-yl)methyl)thiazol-2-yl)acetamide] | 46
26 | COc1nccc(CC2CCCN(Cc3cnc(NC(C)=O)s3)C2)c1C (stereo not drawn) [Example 2-3, N-(5-((3-((2-methoxy-3-methylpyridin-4-yl)methyl)piperidin-1-yl)methyl)thiazol-2-yl)acetamide] | 2
27 | CC(=O)Nc1nc(F)c(CN2CC[C@H](Cc3cc(C)nc(C)n3)C2)s1 [Example 3-29, (R)-N-(5-((3-((2,6-dimethylpyrimidin-4-yl)methyl)pyrrolidin-1-yl)methyl)-4-fluorothiazol-2-yl)acetamide] | 10
28 | CC(=O)Nc1ncc(CN2CC(Cc3ncc(F)cn3)CC[C@H]2C(F)(F)F)s1 (stereo partly drawn) [Example 2-49] | > 20000
29 | CC(=O)Nc1ncc(CN2CCCC(Cn3cc(C4CCC4)cn3)C2)s1 (stereo not drawn) [Example 4-5, N-(5-((3-((4-cyclobutyl-1H-pyrazol-1-yl)methyl)piperidin-1-yl)methyl)thiazol-2-yl)acetamide] | 660
30 | COc1cc(C[C@@H]2C[C@@H](C)N(Cc3sc(NC(C)=O)nc3F)C2)ncn1 [Example 3-43, N-(4-fluoro-5-(((2R,4S)-4-((6-methoxypyrimidin-4-yl)methyl)-2-methylpyrrolidin-1-yl)methyl)thiazol-2-yl)acetamide] | 87
31 | CC(=O)Nc1nc(F)c(CN2CC[C@H](Cc3cc(C)ncc3Cl)C2)s1 [Example 3-30, (S)—N-(5-((3-((5-chloro-2-methylpyridin-4-yl)methyl)pyrrolidin-1-yl)methyl)-4-fluorothiazol-2-yl)acetamide] | 5.1
32 | CC(=O)Nc1nc(F)c(CN2C[C@@H](Cc3ncc(F)cn3)C[C@H]2C)s1 [Example 3-42, N-(4-fluoro-5-(((2R,4R)-4-((5-fluoropyrimidin-2-yl)methyl)-2-methylpyrrolidin-1-yl)methyl)thiazol-2-yl)acetamide] | < 1
33 | COc1cc(C[C@H]2C[C@@H](C)N(Cc3sc(NC(C)=O)nc3F)C2)ncn1 [Example 3-45, N-(4-fluoro-5-(((2R,4R)-4-((6-methoxypyrimidin-4-yl)methyl)-2-methylpyrrolidin-1-yl)methyl)thiazol-2-yl)acetamide] | 4.4
34 | CC(=O)Nc1ncc(CN2CC[C@@H](Cc3ncc(F)cn3)C2)s1 (single isomer, unassigned) [Example 2-2] | 114
35 | CC(=O)Nc1nc(F)c(CN2CC[C@@H](Cc3ncc(F)cn3)C2)s1 [Example 3-36, (S)—N-(4-fluoro-5-((3-((5-fluoropyrimidin-2-yl)methyl)pyrrolidin-1-yl)methyl)thiazol-2-yl)acetamide] | 77
36 | CC(=O)Nc1ncc(CN2CCC[C@H](Cc3ncc(F)c(C)n3)C2)s1 [Example 2-7, (R)-N-(5-((3-((5-fluoro-4-methylpyrimidin-2-yl)methyl)piperidin-1-yl)methyl)thiazol-2-yl)acetamide] | 3

Source: patent US11459324B2, “O-glycoprotein-2-acetamido-2-deoxy-3-D-glycopyranosidase inhibitors” (BIOGEN MA INC., priority 2018, dated 2022)
